Assay results from US5089498A, “Substituted 4-aminoquinoline derivatives as gastric acid secretion inhibitors” (SmithKline Beckman Intercredit B.V., priority 1988, dated 1992).

Tested on: pentagastrin stimulated gastric acid secretion
Assay: Rat Lumen Perfused Stomach (pentagastrin stimulated gastric acid secretion)
Format: in vivo
Conditions: i.v., 10 μmole/kg
From the text: B. Rat Lumen Perfused Stomach (pentagastrin stimulated gastric acid secretion).
Using a modification of the procedure described by Ghosh & Schild (Br. J. Pharmacology, 13, 54, 1958), the compounds of the following examples were found on i.v. administration at a concentration of 10 μmole/kg to cause an inhibition of pentagastrin stimulated gastric acid secretion a follows: […]

Structure (SMILES) | % inhibition of pentagastrin stimulated gastric acid secretion [%]
CCCC(=O)c1cnc2c(C(N)=O)cccc2c1Nc1ccccc1C [Example 2, 3-butyryl-4-(2-methylphenylamino)quinoline-8-carboxamide] | 39
CCCC(=O)c1cnc2c(C(=O)OC)cccc2c1Nc1ccccc1C [Example 1, methyl 3-butyryl-4-(2-methylphenylamino)quinoline-8-carboxylate] | 42
